Assay results taken from ChEMBL document CHEMBL4680250, “Identification of tetracyclic lactams as NMDA receptor antagonists with potential application in neurological disorders” (Eur J Med Chem, 2020).

Columns and labels:
Glutamate NMDA receptor [1] = test: Antagonist activity at NMDAR in embryonic cultures of rat cortical neuron assessed as inhibition of NMDA-induced calcium influx at 30 uM preincubated for 10 mins followed by NMDA addition by Fluo-4/AM dye based fluorescence assay relative to control; format: tissue-based
Glutamate NMDA receptor [2] = test: Antagonist activity at NMDAR in embryonic cultures of rat cortical neuron assessed as inhibition of NMDA-induced calcium influx preincubated for 10 mins followed by NMDA addition by Fluo-4/AM dye based fluorescence assay; format: tissue-based
[3] = Permeability of compound in PBS at pH 7.4 incubated for 120 mins by UV spectroscopy assay based PAMPA-BBB assay; format: ADME; conditions: read-out: permeability
HepG2 = test: Cytotoxicity against human HepG2 cells assessed as reduction in cell viability by MTT assay; format: cell-based
HEK293 = test: Cytotoxicity against HEK293 cells assessed as reduction in cell viability by MTT assay; format: cell-based; conditions: Homo sapiens
[4] = molecular target: Glutamate [NMDA] receptor; test: Binding affinity to NMDAR (unknown origin); format: protein-complex assay, Homo sapiens

## O=C1CC[C@@]2(c3ccc(F)cc3)O[C@@H]3Cc4ccccc4[C@@H]3N12
Glutamate NMDA receptor [1]; read-out: IC50
  IC50: 56 µM
Glutamate NMDA receptor [2]
  IC50: 17 µM
[3]
  Papp at 2 h: 24.2 ×10⁻⁶ cm/s
HepG2
  IC50: > 100 µM
HEK293
  IC50: > 100 µM

## C[C@@H]1CC(=O)N2[C@H]3c4ccccc4C[C@@H]3O[C@@]12c1ccc(Cl)cc1
Glutamate NMDA receptor [1]; read-out: IC50
  IC50: 32 µM

## C[C@H]1CC(=O)N2[C@H]3c4ccccc4C[C@H]3O[C@]12c1ccc(Cl)cc1
Glutamate NMDA receptor [1]; read-out: IC50
  IC50: 80 µM
Glutamate NMDA receptor [2]
  IC50: 17 µM
HepG2
  IC50: > 100 µM
HEK293
  IC50: > 100 µM

## Cc1ccc([C@@]23CCC(=O)N2[C@H]2c4ccccc4C[C@H]2O3)cc1
Glutamate NMDA receptor [1]; read-out: IC50
  IC50: 46 µM
Glutamate NMDA receptor [2]
  IC50: 24 µM

## C[C@H]1CC(=O)N2[C@H]3c4ccccc4C[C@@H]3O[C@@]12c1ccc(Cl)cc1
Glutamate NMDA receptor [1]; read-out: IC50
  IC50: 62 µM
Glutamate NMDA receptor [2]
  IC50: 23 µM

## O=C1CC[C@]2(c3ccc(F)cc3)O[C@H]3Cc4ccccc4[C@@H]3N12
Glutamate NMDA receptor [1]; read-out: IC50
  IC50: 61 µM
Glutamate NMDA receptor [2]
  IC50: 15 µM
HepG2
  IC50: > 100 µM
HEK293
  IC50: > 100 µM

## C[C@@H]1CC(=O)N2[C@H]3c4ccccc4C[C@H]3O[C@]12c1ccc(Cl)cc1
Glutamate NMDA receptor [1]; read-out: IC50
  IC50: 69 µM
Glutamate NMDA receptor [2]
  IC50: 13 µM
HepG2
  IC50: 34 µM
HEK293
  IC50: 46 µM

## c1ccc2c(c1)C[C@H]1N[C@@H]2c2ccccc21
[4]
  Ki: 0.0372 µM

## COc1ccc([C@@]23CCC(=O)N2[C@H]2c4ccccc4C[C@H]2O3)cc1
Glutamate NMDA receptor [1]; read-out: IC50
  IC50: 4 µM

## CS(=O)(=O)c1ccc([C@@]23CCC(=O)N2[C@H]2c4ccccc4C[C@H]2O3)cc1
Glutamate NMDA receptor [1]
  IC50: Not Active

## O=C1CC[C@@]2(c3ccc(Cl)cc3)O[C@@H]3Cc4ccccc4[C@@H]3N12
Glutamate NMDA receptor [1]; read-out: IC50
  IC50: 82 µM
Glutamate NMDA receptor [2]
  IC50: 17 µM
[3]
  Papp at 2 h: 19.2 ×10⁻⁶ cm/s
HepG2
  IC50: > 100 µM
HEK293
  IC50: > 100 µM

## CC[C@@]1(c2ccccc2Cl)CCCCC1=O
[4]
  Ki: 0.659 µM

## O=C1CC[C@]2(c3ccc(Cl)cc3)O[C@H]3Cc4ccccc4[C@@H]3N12
Glutamate NMDA receptor [1]; read-out: IC50
  IC50: 65 µM
Glutamate NMDA receptor [2]
  IC50: 13 µM
[3]
  Papp at 2 h: 15.8 ×10⁻⁶ cm/s
HepG2
  IC50: > 100 µM
HEK293
  IC50: > 100 µM

## O=C1CC[C@@]2(c3ccc(Br)cc3)O[C@@H]3Cc4ccccc4[C@@H]3N12
Glutamate NMDA receptor [1]; read-out: IC50
  IC50: 73 µM
Glutamate NMDA receptor [2]
  IC50: 16 µM
[3]
  Papp at 2 h: 12.3 ×10⁻⁶ cm/s
HepG2
  IC50: > 100 µM
HEK293
  IC50: > 100 µM

## O=C1CC[C@]2(c3ccc(Br)cc3)O[C@H]3Cc4ccccc4[C@@H]3N12
Glutamate NMDA receptor [1]; read-out: IC50
  IC50: 66 µM
Glutamate NMDA receptor [2]
  IC50: 11 µM
[3]
  Papp at 2 h: 11.2 ×10⁻⁶ cm/s
HepG2
  IC50: > 100 µM
HEK293
  IC50: > 100 µM

## O=C1CC[C@@]2(c3ccccc3)O[C@H]3Cc4ccccc4[C@@H]3N12
Glutamate NMDA receptor [1]; read-out: IC50
  IC50: 29 µM

## Cc1ccc([C@@]23CCC(=O)N2[C@H]2c4ccccc4C[C@H]2O3)cc1Cl
Glutamate NMDA receptor [1]; read-out: IC50
  IC50: 63 µM
Glutamate NMDA receptor [2]
  IC50: 12 µM
HepG2
  IC50: > 100 µM
HEK293
  IC50: > 100 µM

## O=C1CCC[C@@]2(c3ccccc3)O[C@@H]3Cc4ccccc4[C@@H]3N12
Glutamate NMDA receptor [1]; read-out: IC50
  IC50: 13 µM

## COc1ccc([C@@]23CCC(=O)N2[C@H]2c4ccccc4CC2O3)cc1F (single isomer, unassigned)
Glutamate NMDA receptor [1]; read-out: IC50
  IC50: 13 µM

## Cc1ccc([C@]23CCC(=O)N2C2c4ccccc4C[C@@H]2O3)cc1Cl (single isomer, unassigned)
Glutamate NMDA receptor [1]; read-out: IC50
  IC50: 49 µM

## N[C@@H](Cc1ccccn1)c1ccccc1 [LANICEMINE]
[4]
  Ki: 0.56 µM

## c1ccc(C2(N3CCCCC3)CCCCC2)cc1 [PHENCYCLIDINE]
[4]
  Ki: 0.059 µM
